# Assay results from US11008297B2, “Bio-based, multi-aromatic compounds, and methods of making and using same” (ROWAN UNIVERSITY, priority 2017, dated 2021).
# Experiment: UV-VIS spectroscopy during titration with sodium hydroxide (pH dependence of absorbance)
# Format: physicochemical
# Settings: 0.25 g in 100 mL deionized water, titrated with 0.1 M sodium hydroxide, UV-VIS at every 0.5 pH
# Protocol: FIG. 8 comprises a graph illustrating maximum absorbance as a function of pH for a compound of the invention.
# Triguaiacol (0.25 g, Example 4) was dissolved in 100 mL of deionized water. The mixture was titrated with 0.1 M sodium hydroxide solution. At every 0.5 pH, UV-VIS spectroscopy was performed on a portion of the mixture. The wavelength in the absorbance spectrum where the absorbance is at a maximum was measured.
structure (smiles),measurement,value
"COc1cc(C(c2ccc(O)c(OC)c2)c2ccc(O)c(OC)c2)ccc1O [Triguaiacol, 4,4′,4″-methanetriyltris(2-methoxyphenol)]",wavelength in the absorbance spectrum where the absorbance is at a maximum,decrease with increasing pH
